In US9567336B2, “Conjugated TLR7 and/or TLR8 and TLR2 agonists” (CAYLA, priority 2012, dated 2017):

Columns and labels:
[1] = biological target: T1, human TLR7 (Homo sapiens, UniProt Q9NYK1); experiment: HEK-Blue hTLR7 NF-κB/AP-1 SEAP reporter cell assay; format: cell-based; settings: HEK-Blue hTLR7 reporter cells, 10 μg/mL to 10 pg/ml, 24 hours, OD at 655 nm; FIGS. 1A, 1B
T1 construct: host or cells: HEK293 (HEK-Blue hTLR7)
T1 sequence (Q9NYK1 27-1049): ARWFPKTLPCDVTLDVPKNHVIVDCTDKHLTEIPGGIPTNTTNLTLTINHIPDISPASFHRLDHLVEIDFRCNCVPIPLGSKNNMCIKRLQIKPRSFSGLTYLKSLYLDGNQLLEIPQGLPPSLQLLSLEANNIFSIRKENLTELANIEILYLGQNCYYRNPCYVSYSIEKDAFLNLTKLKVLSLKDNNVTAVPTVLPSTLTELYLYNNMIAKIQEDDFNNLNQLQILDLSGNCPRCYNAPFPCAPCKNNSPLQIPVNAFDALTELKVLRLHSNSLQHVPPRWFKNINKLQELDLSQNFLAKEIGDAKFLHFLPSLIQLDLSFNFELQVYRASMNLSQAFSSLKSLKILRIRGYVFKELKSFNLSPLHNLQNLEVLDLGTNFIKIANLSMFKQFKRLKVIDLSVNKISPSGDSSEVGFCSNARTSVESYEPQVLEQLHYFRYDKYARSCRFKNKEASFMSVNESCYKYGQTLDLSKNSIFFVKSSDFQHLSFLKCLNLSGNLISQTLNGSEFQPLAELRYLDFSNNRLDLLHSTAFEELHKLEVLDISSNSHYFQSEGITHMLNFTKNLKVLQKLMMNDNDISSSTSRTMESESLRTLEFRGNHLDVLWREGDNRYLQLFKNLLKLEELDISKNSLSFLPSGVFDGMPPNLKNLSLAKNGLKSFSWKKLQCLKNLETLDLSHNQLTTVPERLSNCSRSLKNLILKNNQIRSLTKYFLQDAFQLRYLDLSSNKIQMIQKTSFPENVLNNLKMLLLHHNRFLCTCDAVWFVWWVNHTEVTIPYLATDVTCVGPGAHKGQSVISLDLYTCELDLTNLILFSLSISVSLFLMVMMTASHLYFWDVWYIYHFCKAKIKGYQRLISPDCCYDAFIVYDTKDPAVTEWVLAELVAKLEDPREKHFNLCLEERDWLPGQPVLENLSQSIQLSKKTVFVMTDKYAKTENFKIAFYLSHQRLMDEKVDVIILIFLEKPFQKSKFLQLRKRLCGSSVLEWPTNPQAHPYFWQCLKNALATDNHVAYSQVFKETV
Method: (§1) Some conjugated compounds of the invention were tested for their ability to activate TLR7 and TLR2 receptor signaling. Cell-based assays were carried out using TLR7 and TLR2 reporter cell lines (InvivoGen). The reporter cell lines are engineered HEK293 cells, a human embryonic kidney cell line (ATCC, CRL-1573) that stably express either murine TLR7 (HEK-Blue™ mTLR7) or human TLR7 (HEK-Blue™ hTLR7) or murine TLR2 (HEK-Blue™ mTLR2) or human TLR2 (HEK-Blue™ hTLR2) with an NF-κB-inducible secreted embryonic alkaline phosphatase (SEAP) as the reporter gene. The SEAP reporter gene is placed under the control of the NF-κB and AP-inducible promoter. Stimulation with the corresponding TLR ligand activates NF-κB and AP-1, which induces the production of SEAP. Detection of SEAP is measured following culturing cells in HEK-Blue™ Detection media (InvivoGen). HEK-Blue™ Detection contains a SEAP substrate, which upon hydrolysis by SEAP produces a colorimetric change allowing for detection of SEAP as the protein is secreted. […] These assays were carried out using RAW-Blue™ Cells (InvivoGen), derived from RAW 264.7 mouse leukemic monocytic macrophage cell line (ATCC, CRL 2278) stably overexpressing a NF-κB/AP-1 inducible SEAP reporter constructs.
(§2) To perform the assay, cells were seeded on 96 well microliter plates at 50,000 or 100,000 cells per well for HEK-Blue™ Cells and RAW-Blue™ Cells respectively, and cultured at 37° C. in the presence of the conjugated compounds. The conjugated compounds were prepared as follows: First, stock solutions of the small molecule conjugated compounds of the invention were prepared in ethanol or water to a concentration of 10 mg/ml. A working dilution of the conjugated TLR7-TLR2 small molecules was made up in water and added to cells at a final range of concentrations from 10 μg/mL to 10 pg/ml. The working dilutions of the conjugated TLR7-TLR2 small molecules as the stated concentrations were directly added to the reporter cell lines and incubated at 37° C. for 24 hours. After 24 hours of incubation, the effect on reporter gene activity was determined by reading the OD at 655 nm using iMark™ Microplate Reader (BIO-RAD).
(§3) The conjugated compounds were tested alone for their ability to specifically activate TLR7 and TLR2, alongside the known TLR7 activators R848 or CL264 (InvivoGen) and the TLR2 agonists Pam2CSK4 or Pam3CSK4 (InvivoGen). The specificity of the TLR activity was determined by use of reporter cell lines to the other TLRs (data not shown). […] The molecules show a tendency to activate mouse TLR7 with greater sensitivity than human TLR7. […] Furthermore, dose-dependent responses of the conjugated compounds indicate significant TLR activities of TLR7 and TLR2 compared to the corresponding controls.

[2] = system: NF-κB in RAW-Blue™ Cells (RAW 264.7, endogenous TLR7 and TLR2); experiment: RAW-Blue Cells NF-κB/AP-1 inducible SEAP reporter assay; format: cell-based, mouse; settings: murine monocytic macrophage cell line RAW 264.7, 24 hours, OD at 655 nm; FIGS. 5A, 5B
Method: as §1, §2, §3

[3] = biological target: T2, human TLR2 (Homo sapiens, UniProt O60603); experiment: HEK-Blue hTLR2 NF-κB/AP-1 SEAP reporter cell assay; format: cell-based; settings: HEK-Blue hTLR2 reporter cells, 10 μg/mL to 10 pg/ml, 24 hours, OD at 655 nm; FIGS. 3A, 3B
T2 construct: host or cells: HEK293 (HEK-Blue hTLR2)
Method: as §1, §2, §3

T2 sequence (O60603 21-784): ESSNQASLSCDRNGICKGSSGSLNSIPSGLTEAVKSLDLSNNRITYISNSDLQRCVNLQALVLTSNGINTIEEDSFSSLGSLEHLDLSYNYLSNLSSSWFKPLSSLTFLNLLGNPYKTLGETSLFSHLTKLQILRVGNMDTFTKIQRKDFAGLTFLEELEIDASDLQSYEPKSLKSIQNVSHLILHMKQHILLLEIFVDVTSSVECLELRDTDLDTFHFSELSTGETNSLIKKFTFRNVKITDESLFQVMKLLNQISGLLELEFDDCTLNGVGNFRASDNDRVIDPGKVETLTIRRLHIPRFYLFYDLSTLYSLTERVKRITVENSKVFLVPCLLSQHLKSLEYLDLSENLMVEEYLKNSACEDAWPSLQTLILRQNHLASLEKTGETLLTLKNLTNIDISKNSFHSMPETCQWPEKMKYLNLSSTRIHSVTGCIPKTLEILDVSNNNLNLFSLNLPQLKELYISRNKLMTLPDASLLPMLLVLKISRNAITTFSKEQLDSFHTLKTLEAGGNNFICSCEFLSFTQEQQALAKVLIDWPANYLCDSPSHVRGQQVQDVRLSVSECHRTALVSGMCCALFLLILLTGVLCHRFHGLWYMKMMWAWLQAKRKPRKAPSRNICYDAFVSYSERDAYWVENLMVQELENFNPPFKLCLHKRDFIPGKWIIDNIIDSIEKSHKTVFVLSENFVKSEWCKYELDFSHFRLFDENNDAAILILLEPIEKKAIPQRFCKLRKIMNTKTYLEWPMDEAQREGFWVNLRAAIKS

Q: `CCCCCCCCCCCCCCCC(=O)OCC(CSC[C@H](N)C(=O)Nc1ccc(Cn2c(O)nc3c(N)nc(NCCCC)nc32)cc1)OC(=O)CCCCCCCCCCCCCCC` (mixture of isomers) [CL401, (R)-3-(2-amino-3-(4-((6-amino-2-(butylamino)-8-hydroxy-9H-purin-9-yl)methyl)phenylamino)-3-oxopropylthio)propane-1,2-diyl dipalmitate] was tested. Which “ability to activate TLR7 receptors (human TLR7)” value [1] did it give?
A: activate TLR7 receptors

Q: What about the “induction of NF-κB in RAW-Blue cells” value [2] of the same compound?
A: activate NF-κB

Q: What about the “ability to activate TLR2 receptor (human TLR2)” value [3] of the same compound?
A: activate TLR2 receptor
